Measurements taken from ChEMBL document CHEMBL1152165, “Discovery of 1-benzoyl-3-cyanopyrrolo[1,2-a]quinolines as a new series of apoptosis inducers using a cell- and caspase-based high-throughput screening assay. Part 1: Structure-activity relationships of the 1- and 3-positions” (Bioorg Med Chem Lett, 2008).
Activity calls are given as the source filed them. The rule behind the calls is not given here.

Legend:
SNU-398 [1] = experiment: Induction of apoptosis in human SNU398 cells assessed as caspase activation after 24 hrs; type: functional, cell-based; details: SNU-398, 24 h
T47D [2] = experiment: Induction of apoptosis in human T47D cells assessed as caspase activation after 24 hrs; type: functional, cell-based
HCT-116 [3] = experiment: Induction of apoptosis in human HCT116 cells assessed as caspase activation after 24 hrs; type: functional, cell-based; details: HCT-116, 24 h
HCT-116 [4] = experiment: Growth inhibition of human HCT116 cells; type: functional
SNU-398 [5] = experiment: Growth inhibition of human SNU398 cells; type: functional
[6] = Inhibition of tubulin polymerization
HCT-116 [7] = experiment: Cell cycle arrest in human HCT116 cells by accumulation at G2/M phase by flow cytometry; type: functional, cell-based
T47D [8] = experiment: Growth inhibition of human T47D cells; type: functional
K562 = experiment: Growth inhibition of human K562 cells; type: functional
Raji = experiment: Growth inhibition of human Raji cells; type: functional
ZR-75-1 = experiment: Growth inhibition of human ZR-75-1 cells; type: functional
HT-29 = experiment: Growth inhibition of human HT-29 cells; type: functional
DLD-1 = experiment: Growth inhibition of human DLD1 cells; type: functional
[9] = Growth inhibition of human H1299 cells; type: functional; details: NCI-H1299
SK-BR-3 = experiment: Growth inhibition of human SKBR3 cells; type: functional
[10] = Inhibition of tubulin polymerization up to 50 uM
BT-474 = experiment: Growth inhibition of human BT474 cells; type: functional
[11] = Growth inhibition of human NAMALWA cells; type: functional; details: NAMALVA

In the case of `N#Cc1cc(C(=O)c2ccc(F)cc2)n2c1ccc1ccccc12`, the EC50 (SNU-398 [1]) is reported as 880 nM, the EC50 (T47D [2]) is reported as 36 nM and the EC50 (HCT-116 [3]) is reported as 1200 nM.

`Cc1ccc(C(=O)c2cc(C#N)c3ccc4ccccc4n23)cc1` gave an EC50 (SNU-398 [1]) of 2700 nM, an EC50 (T47D [2]) of 930 nM and an EC50 (HCT-116 [3]) of 4200 nM.

Molecule `N#Cc1cc(C(O)c2ccc(N3CCCC3)cc2)n2c1ccc1ccccc12` (stereo not drawn) has an EC50 (SNU-398 [1]) of 300 nM, an EC50 (T47D [2]) of 210 nM and an EC50 (HCT-116 [3]) of 320 nM.

`CCN(CC)c1ccc(C(=O)c2cc(C#N)c3ccc4ccccc4n23)cc1` gave an EC50 (SNU-398 [1]) of 260 nM, an EC50 (T47D [2]) of 100 nM and an EC50 (HCT-116 [3]) of 370 nM.

Work on `N#Cc1cc(C(=O)c2ccc(N3CCNCC3)cc2)n2c1ccc1ccccc12` yielded an EC50 (SNU-398 [1]) greater than 10000 nM, an EC50 (T47D [2]) greater than 10000 nM and an EC50 (HCT-116 [3]) greater than 10000 nM.

`N#Cc1cc(C(=O)c2ccc(-n3ccnc3)cc2)n2c1ccc1ccccc12` gave a GI50 (HCT-116 [4]) of 65 nM, an EC50 (SNU-398 [1]) of 39 nM and a GI50 (SNU-398 [5]) of 59 nM. It also gave an IC50 [6] of 5000 nM, an EC50 (T47D [2]) of 34 nM and an EC50 (HCT-116 [3]) of 74 nM. For the same molecule, the Activity (HCT-116 [7]) was “Active” and the GI50 (T47D [8]) was 41 nM.

For `COc1ccc(C(=O)c2cc(C#N)c3ccc4ccccc4n23)cc1`, the GI50 (HCT-116 [4]) was 490 nM, the EC50 (SNU-398 [1]) was 180 nM and the GI50 (SNU-398 [5]) was 120 nM. The EC50 (T47D [2]) was 280 nM, the EC50 (HCT-116 [3]) was 280 nM and the GI50 (T47D [8]) was 71 nM.

`N#Cc1cc(C(=O)c2ccc(Cl)cc2)n2c1ccc1ccccc12` gave an EC50 (SNU-398 [1]) greater than 10000 nM, an EC50 (T47D [2]) of 49 nM and an EC50 (HCT-116 [3]) greater than 10000 nM.

For `N#Cc1cc(C(=O)c2ccc([N+](=O)[O-])cc2)n2c1ccc1ccccc12`, the EC50 (SNU-398 [1]) was greater than 10000 nM, the EC50 (T47D [2]) was 2800 nM and the EC50 (HCT-116 [3]) was greater than 10000 nM.

`N#Cc1cc(C(=O)c2cccnc2)n2c1ccc1ccccc12` showed an EC50 (SNU-398 [1]) of 2600 nM, an EC50 (T47D [2]) of 690 nM and an EC50 (HCT-116 [3]) of 3700 nM.

With `CCOC(=O)c1cc(C(=O)c2cccc(OC)c2)n2c1ccc1ccccc12` the EC50 (SNU-398 [1]) was greater than 10000 nM, the EC50 (T47D [2]) was greater than 10000 nM and the EC50 (HCT-116 [3]) was greater than 10000 nM.

Molecule `N#Cc1cc(C(=O)c2ccc(N)cc2)n2c1ccc1ccccc12` has a GI50 (HCT-116 [4]) of 1200 nM, an EC50 (SNU-398 [1]) of 200 nM and a GI50 (SNU-398 [5]) of 420 nM. The EC50 (T47D [2]) was 170 nM, the EC50 (HCT-116 [3]) was 240 nM and the GI50 (T47D [8]) was 470 nM.

Molecule `N#Cc1cc(C(=O)c2ccccn2)n2c1ccc1ccccc12` has an EC50 (SNU-398 [1]) of 1600 nM, an EC50 (T47D [2]) of 40 nM and an EC50 (HCT-116 [3]) of 1900 nM.

`COc1ccc(C(O)c2cc(C#N)c3ccc4ccccc4n23)cc1` (stereo not drawn) gave an EC50 (SNU-398 [1]) of 140 nM, an EC50 (T47D [2]) of 220 nM and an EC50 (HCT-116 [3]) of 240 nM.

Molecule `N#Cc1cc(C(=O)c2ccc(N3CCCC3)cc2)n2c1ccc1ccccc12` has a GI50 (HCT-116 [4]) of 250 nM, an EC50 (SNU-398 [1]) of 510 nM and a GI50 (SNU-398 [5]) of 140 nM. For the same molecule, the EC50 (T47D [2]) was 300 nM, the EC50 (HCT-116 [3]) was 580 nM and the GI50 (T47D [8]) was 75 nM.

`COc1cccc(C(=O)c2cc(C#N)c3ccc4ccccc4n23)c1` showed an EC50 (SNU-398 [1]) of 1600 nM, an EC50 (T47D [2]) of 170 nM and an EC50 (HCT-116 [3]) of 1700 nM.

With `N#Cc1cc(C(=O)c2ccc(-n3cccn3)cc2)n2c1ccc1ccccc12` the GI50 (HCT-116 [4]) was 240 nM, the EC50 (SNU-398 [1]) was 57 nM and the GI50 (SNU-398 [5]) was 36 nM. For the same molecule, the IC50 [6] was 1000 nM, the EC50 (T47D [2]) was 41 nM and the EC50 (HCT-116 [3]) was 96 nM. The GI50 (T47D [8]) was 72 nM.

With `Cc1ccccc1C(=O)c1cc(C#N)c2ccc3ccccc3n12` the GI50 (HCT-116 [4]) was 1600 nM, the EC50 (SNU-398 [1]) was 2700 nM and the GI50 (SNU-398 [5]) was 730 nM. It also gave an EC50 (T47D [2]) of 140 nM, an EC50 (HCT-116 [3]) of 2500 nM and a GI50 (T47D [8]) of 87 nM.

With `N#Cc1cc(C(=O)c2ccccc2)n2c1ccc1ccccc12` the GI50 (K562) was 1200 nM, the GI50 (HCT-116 [4]) was 5800 nM and the EC50 (SNU-398 [1]) was 5200 nM. The GI50 (Raji) was 1200 nM, the GI50 (SNU-398 [5]) was 2000 nM and the GI50 (ZR-75-1) was 70 nM. It also gave an EC50 (T47D [2]) of 78 nM, an EC50 (HCT-116 [3]) of 5500 nM and a GI50 (HT-29) of 1200 nM. It also gave a GI50 (DLD-1) of 1200 nM, a GI50 [9] of 1200 nM and a GI50 (SK-BR-3) of 70 nM. For the same molecule, the Activity (HCT-116 [7]) was “Active”, the Activity [10] was “inactive” and the GI50 (BT-474) was 70 nM. The GI50 [11] was 1200 nM and the GI50 (T47D [8]) was 70 nM.

In the case of `N#Cc1cc(C(O)c2ccc(-n3cccn3)cc2)n2c1ccc1ccccc12` (stereo not drawn), the EC50 (SNU-398 [1]) is reported as 350 nM, the EC50 (T47D [2]) is reported as 160 nM and the EC50 (HCT-116 [3]) is reported as 550 nM.

For `CC(=O)c1cc(C(=O)c2ccc(C)cc2)n2c1ccc1ccccc12`, the EC50 (SNU-398 [1]) was greater than 10000 nM, the EC50 (T47D [2]) was greater than 10000 nM and the EC50 (HCT-116 [3]) was greater than 10000 nM.
